Consider 79 molecules from the METLIN SMRT retention time set (Domingo-Almenara et al. 2019).

The data set is described as follows: gradient 5% acetonitrile 3 min, to 50% in 2 min, to 85% in 15 min, held 3 min, 100 µL/min. The following applies: column: Zorbax Extend-C18 2.1 x 50 mm; eluents: water / acetonitrile, 0.1% formic acid. The method, boiled down: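 Data were gathered over 3 months by HPLC coupled to a quadrupole time-of-flight mass spectrometer, operated in positive and negative ionization mode. Mixtures of ~100 pure standards ran on a Zorbax Extend-C18 column (2.1 × 50 mm, 1.8 μm) at 100 μL/min, with water and acetonitrile each containing 0.1% formic acid and dead and dwell volumes of 40 μL and 900 μL. Retention time was read from adduct peaks picked by computer and checked manually.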
For the molecule `COC1=C(OC)C(=O)c2ccccc2C1=O`, the RP-LC retention time was determined as 878 s.

Take `COC1=CC(=O)OC(/C=C/c2ccccc2)C1` (centres undefined): the RP-LC retention time came to 883 s. As for `CCOc1cccc(-c2noc(Cn3nc(-c4ccc(F)cc4)ccc3=O)n2)c1`, the figure is 1060 s. Take `COc1ccc(-n2ncc3c(=O)n(Cc4nc(-c5ccccc5C)no4)cnc32)cc1`: the RP-LC retention time worked out at 1060 s. With `CC1CCN(S(=O)(=O)c2ccc(-c3nnc(C(=O)NCCN4CCCC4)o3)cc2)CC1`, the RP-LC retention time is 686 s. `COc1ccc2cccc(NC(=O)c3ccc(F)c(F)c3)c2n1` came in with an RP-LC retention time of 1200 s. `COc1ccc2c(c1)CC(NC(=O)NCCCN1CCN(Cc3ccccc3)CC1)CO2` (centres undefined): the RP-LC retention time is 634 s. As for `O=C(c1cccs1)N1CCC(F)(C(=O)NC2CC2)CC1`, the figure is 634 s; as for `Cc1ccn(-c2cc(Cl)ccc2[C@@H](Oc2cc(-c3ccc(C[C@H](N)C(=O)O)cc3)nc(N)n2)C(F)(F)F)n1`, 834 s; as for `O=C(Nc1cnn(-c2ncc(N3CCSCC3)cn2)c1)C1CCCC1`, 737 s.

For the molecule `CCCn1cc(S(=O)(=O)NCc2ccccc2C(F)(F)F)c2cccnc21`, the RP-LC retention time came out at 988 s. Molecule `CCN1CCN(c2cc(C)c3cc(NC(=O)CC4CCCCC4)ccc3n2)CC1` displayed an RP-LC retention time of 594 s. Molecule `O=C(CN1CCC2(CC1)N=C(c1ccc(Br)cc1)C(=O)N2)Nc1ccccc1` came in with an RP-LC retention time of 825 s. Take `Nc1nc(N)c(-c2cccc(C(F)(F)F)c2)c(Cc2cccc(C(F)(F)F)c2)n1`: the RP-LC retention time was found to be 741 s. For the molecule `O=C(Nc1ccc(F)cc1)C(=O)c1ccc[nH]1`, the RP-LC retention time was 821 s. For the molecule `CCOc1ccccc1CNC(=O)Cn1c(CC)nc2onc(C)c2c1=O`, the RP-LC retention time came to 865 s. As for `Cc1oc(-c2[nH]ncc2C(=O)N2CCCC2)cc1S(=O)(=O)NCc1ccc(F)cc1F`, the figure is 710 s; as for `Cc1cc(C(=O)NC2CCCCC2)nc2cc(-c3cccs3)nn12`, 1220 s. `O=C(NCc1ccccc1)C1(CCO)CC12CCOCC2` (centres undefined) returned an RP-LC retention time of 627 s. As for `O=C(NC1CCc2ccccc21)C1CCN(C(=O)c2ncn3c2COC(c2ccc(F)cc2)C3)CC1` (centres undefined), the figure is 792 s; as for `O=C(Nc1ccc(OCc2nnc(-c3ccccc3)o2)cc1)c1ccc(Br)o1`, 936 s; as for `Cc1cc(C)c(S(=O)(=O)N2CC(c3nc(-c4ccncc4)no3)C2)c(C)c1`, 978 s. As for `COCC(=O)N1CCCCCNC(=O)[C@@H]2CCCC[C@@H]21`, the RP-LC retention time worked out at 631 s. The molecule `O=C(Cc1cccs1)Nc1c(C(=O)N2CCN(c3ccccn3)CC2)oc2ccccc12` showed an RP-LC retention time of 675 s. In the case of `Clc1ccc(-c2csc(Nc3c(Cl)cccc3Cl)n2)cc1Cl`, the RP-LC retention time was found to be 1410 s. Molecule `CCc1ccc(OCc2ccc(C(=O)Nc3nc(-c4ccccc4)cs3)o2)cc1` gave an RP-LC retention time of 1270 s. For the molecule `O=C(NCC1CC1)c1cn(C2CN(C(=O)CCc3c[nH]c4ccccc34)C2)nn1`, the RP-LC retention time came to 712 s. `Cc1ccc(CN2CCC(CNC(=O)c3c(C)oc4ncnc(N5CCOCC5)c34)C2)cc1` (centres undefined) showed an RP-LC retention time of 853 s. `COC(=O)c1c(NCc2ccco2)c2cccc(Cl)c2[nH]c1=O` yielded an RP-LC retention time of 740 s. The molecule `O=C(NCc1ccc(F)c(Cl)c1)C1CCN(c2cnc3nccnc3c2)CC1` returned an RP-LC retention time of 757 s. For the molecule `Cc1cccc(CNS(=O)(=O)c2cc(-c3[nH]ncc3C(=O)N3CCCC3)oc2C)c1`, the RP-LC retention time turned out to be 744 s. Molecule `CCC(C)NC(=O)C1CCCN(C(=O)c2cc(-c3ccccn3)n[nH]2)C1` (centres undefined) came in with an RP-LC retention time of 611 s. `Cc1noc(-c2ccc(-n3cnc(C(=O)NC4CCCCC4)c3)nc2)n1` had an RP-LC retention time of 883 s. The molecule `CCS(=O)(=O)N1CCCC(c2nc(C(C)C)no2)CCNC(=O)CC1` (centres undefined) had an RP-LC retention time of 686 s. As to `CC1CN(CC(=O)N2CCN(c3ccccn3)CC2)c2ccccc2S1` (centres undefined), the RP-LC retention time was 683 s.

Molecule `COc1ccc(-c2nnc(COc3ccc(NC(=O)c4ccc(C)s4)cc3)o2)cc1` returned an RP-LC retention time of 921 s. As for `Cc1ccc(CNC(=O)C2CCN(S(=O)(=O)c3cc(C(=O)N4CCCCCC4)cs3)CC2)o1`, the figure is 862 s. Regarding `CCS(=O)(=O)N1CCCc2cc(C(=O)NCc3ccco3)ccc21`, the RP-LC retention time turned out to be 945 s. For `CCOC(=O)c1c(C)[nH]c(CCC(=O)NCc2ccc(C)o2)c1C`, the RP-LC retention time stood at 816 s.

As to `CCn1c(=O)n(CC)c2cc(NC3=C(C(=O)Nc4ccccc4)S(=O)(=O)c4ccccc43)ccc21`, the RP-LC retention time was determined as 947 s.

As to `CC(C)c1nc2nccc(-c3ccccc3)n2n1`, the RP-LC retention time was 827 s.

As for `COc1ccc(NC(=O)N2CCN(CCn3c(C(F)(F)F)nc4cccnc43)CC2)cc1OC`, the RP-LC retention time turned out to be 611 s. Under `Cc1ccc(-n2nc(C)c(S(=O)(=O)N3CCC(C(=O)NCC4CCCO4)CC3)c2C)cc1` (centres undefined) stands 807 s; under `COCCNc1nc(-c2ccc(OC)cc2)nc2ccccc12`, 644 s; under `Cc1ccc(-c2nc(-c3ccc4nnc(C)n4c3)no2)cc1`, 968 s. On to `Cn1nc(-c2ccsc2)nc1C1CN(S(=O)(=O)c2cccnc2)C1`, for which the RP-LC retention time was determined as 712 s.

In turn, `CCCn1cc(-c2nc(-c3cccnc3)no2)c(=O)c2cc(F)ccc21` returned an RP-LC retention time of 770 s. Regarding `CC1(C(=O)NCc2ccccc2)CCN(S(=O)(=O)c2ccc(C3CCCCC3)cc2)CC1`, the RP-LC retention time worked out at 1230 s. `O=C(c1ccco1)N1CCCC(c2cc(-c3ccc(F)cc3)n[nH]2)C1` (centres undefined) gave an RP-LC retention time of 674 s. `O=C(NCc1ccc(-c2noc(CCc3ccccc3)n2)s1)C1CC1` showed an RP-LC retention time of 915 s. Take `Cc1oc(C2CCN(S(=O)(=O)c3ccc(C(C)C)cc3)CC2)nc1C(=O)N1CCCC1`: the RP-LC retention time came to 1070 s. Under `Cc1nnc(CNC(=O)Cc2csc(Nc3ncccn3)n2)o1` stands 560 s. `CC1(CNC(=O)NCc2cccc(F)c2)CCOCC1` yielded an RP-LC retention time of 684 s.

Molecule `CCC(NC(=O)c1cn2cc(C)ccc2n1)c1ccc(OC)cc1` (centres undefined) yielded an RP-LC retention time of 697 s. Regarding `C[C@@H]1C[C@H]2[C@@H]3C[C@H](F)C4=CC(=O)C(Cl)=C[C@]4(C)[C@@]3(F)[C@@H](O)C[C@]2(C)[C@@]1(O)C(=O)CO`, the RP-LC retention time came to 847 s.

The molecule `COC(=O)C1=CN(c2cccc(F)c2)c2cc(Br)ccc2S1(=O)=O` showed an RP-LC retention time of 928 s.

As for `CC(C)Cn1nc(CNC(=O)c2ccsc2)c2ccccc21`, the RP-LC retention time worked out at 882 s. The molecule `O=C1NC2(CCN(C(=O)Nc3ccc4c(c3)OCO4)CC2)Nc2c(Cl)cccc21` gave an RP-LC retention time of 682 s. Regarding `O=C(Cn1nc(C(=O)N2CCCC2)c2ccccc21)N1CCC(N2CCCCC2)CC1`, the RP-LC retention time worked out at 581 s. Take `CN1CCC(N2CCN(C(=O)c3cc(-c4ccc(F)cc4)cn3C)CC2)CC1`: the RP-LC retention time amounted to 576 s. Under `Cc1ccc(NC(=O)Cn2cccc2-c2nnc(C3CCC3)o2)cc1C` stands 985 s; under `COc1cc(NC(=O)Cn2c(=O)n(-c3ccccc3)c(=O)c3c2cc(C)n3C)cc(OC)c1`, 804 s; under `O=C(Cn1cnc2nc(N3CCC(C(=O)NC4CC4)CC3)sc2c1=O)Nc1ccc2c(c1)CCC2`, 670 s. `Cc1nnc(-c2ccc3ccn(CC(=O)Nc4ccccc4)c3c2)o1` displayed an RP-LC retention time of 778 s. Molecule `CCn1c(CCNC(=O)c2ccc(OC)nc2)nc2cccnc21` returned an RP-LC retention time of 732 s.

`Cc1ccc(OCC(=O)NCC2CCN(Cc3ccncc3)CC2)cc1`: the RP-LC retention time was determined as 543 s. The molecule `O=C(c1cnccn1)N1CCC(N2C(=O)C(O)C23CCCCC3)CC1` (centres undefined) displayed an RP-LC retention time of 590 s. For `CC1=C(c2ccccc2)S(=O)(=O)N=C1N1CCCN(C(=O)CCC2CCCC2)CC1`, the RP-LC retention time was determined as 946 s. Molecule `COc1ccc(NS(=O)(=O)c2cc3n(c2)CCN(C(C)C)C3=O)cc1Cl` gave an RP-LC retention time of 775 s. For `CS(=O)(=O)N1CCC(C(=O)N2CCCC(c3nnc(-c4cccs4)o3)C2)CC1` (centres undefined), the RP-LC retention time was 642 s. `CCn1cnc(S(=O)(=O)N2CCCC(C(=O)N3CCN(c4ccccc4)CC3)C2)c1` (centres undefined) had an RP-LC retention time of 747 s.

`Cc1cc(N2CCN(C(=O)Nc3ccc4c(c3)OCCO4)CC2)nc(N2CCOCC2)n1` returned an RP-LC retention time of 609 s. Molecule `COC(=O)c1[nH]c(C)c(C(=O)C(C)N(C(=O)c2ccc(C)cc2)C2CCCCC2)c1C` (centres undefined) registered an RP-LC retention time of 1050 s. In turn, `COc1ccc(-n2ccc(=O)c(-c3nc(-c4ccc(F)c(Cl)c4)no3)n2)cc1` showed an RP-LC retention time of 966 s. Regarding `O=[N+]([O-])c1ccc(NN=C(c2ccccc2)c2ccccc2)nc1`, the RP-LC retention time was found to be 1300 s. `O=C(Cc1csc2nc(-c3cccc(Br)c3)cn12)NC1CCCC1` gave an RP-LC retention time of 888 s. `COc1ccc(-c2noc(C3CCCN3C(=O)COc3ccc(Cl)cc3)n2)cc1` (centres undefined) displayed an RP-LC retention time of 1030 s.

Regarding `COc1ccc(N2CCN(c3cc(SCC(=O)NCc4ccc(Cl)cc4)ncn3)CC2)cc1`, the RP-LC retention time was found to be 908 s.

`COc1ccc2c(c1)CC(NC(=O)N1CCN(Cc3ccc4c(c3)OCO4)CC1)CO2` (centres undefined) displayed an RP-LC retention time of 652 s.
